Measurements as given in PMC4226669, “Anti-cancer potency of tasquinimod is enhanced via albumin-binding facilitating increased uptake in the tumor microenvironment” (Oncotarget, 2014).
Read-outs that look alike come from different tables or passages of the source.

Assay: Tissue distribution and metabolites in nude mice bearing CWR-22Rv1 cancers
Assay type: in vivo, mouse
Conditions: for concentration at 4 h: male, nude, mouse
Method: To determine the concentration of metabolites, nude mice bearing CWR-22Rv1 prostate cancers were orally administered with 5 mg/kg of ^14C- radiolabeled tasquinimod and 4 and 24 hours later, blood plasma and liver, kidney, and cancer tissue harvested and analyzed for determination of metabolites. […] The predominant metabolite is the O-demethylated quinoline compound, Figure 2A&B, but the concentration of the hydroxylated aromatic quinoline and the N-demethylated quinoline compounds, along with the O-demethylated quinoline compound are also higher in the liver than the blood at the time point studied, Figure 2B. Also in the kidney 40% of the drug is present as metabolites, with the concentration of the hydroxylated aromatic quinoline and the O-demethylated quinoline compounds being higher than in the blood, Figure 2B. In contrast, within the cancer > 80% of the total concentration of drug is present as parent tasquinimod, Figure 2B. Only the O-demethylated quinoline compound is present at a higher concentration in the cancer than blood, Figure 2B. The plasma concentration of total metabolites is < 10% at 4 hours, Figure 2B, and 24 hours post oral dosing with 5 mg/kg, Figure 2A.
Male nude mice bearing 200-300mm^3 CWR-22Rv1 cancers were given ^14C-labeled tasquinimod at a dose of 5 mg/kg via oral gavage. At times ranging from 30 min to 24 hour, groups of 4-6 mice were anaesthetized with ketamine and 1 ml of heparinized blood collected by cardiac puncture, followed by subsequent cardiac perfusion of saline to remove blood associated drug. An aliquot of liver, kidney, and cancer was removed, weighed and then homogenized. The radioactivity in 10 μL aliquots of tissue homogenates and blood plasma was determined using a liquid scintillation counter and used to calculate the total amount of tasquinimod plus its metabolites per gram of tissue or per ml of blood. The remaining sample volume was deproteinated with acetonitrile and the radioactivity of an aliquot of the supernatant determined and the remaining supernatant lyophilized, resuspended initially with 0.1mL dimethyl sulfoxide and diluted by the addition of 0.9mL deionized water prior to injection into the HPLC. The HPLC system consisted of Waters pumps using a Waters gradient controller to deliver mobile phase at a flow rate of 1mL per minute using a Supelcosil ABZ+ C18 column that is 150mm long by 4.6mm diameter and has 5μm particle size. The metabolites were separated using a linear gradient in which the starting mobile phase was 35% acetonitrile: 65% water: 0.1% Trifluoroacetic acid (TFA) increasing to 50% acetonitrile: 50% water: 0.1%TFA over 25 minutes, and then increased rapidly to 98% acetonitrile: 2% water: 0.1%TFA and held until 33 minutes before it is returned to the initial conditions for the next run. Fractions were collected and the radioactivity determined by scintillation counting. As controls, the individual elution time of non-radiolabeled standard solutions of the various tasquinimod metabolites was determined using UV absorption at 215nm. The results were expressed as concentration based upon tissue volume, assuming 1gram wet weight equals 1ml, or normalized to tissue vascular volume.

prostate cancer tissue concentration relative to liver or kidney, normalized to percent vascular volume (5 mg/kg oral): 3-5 fold
time to maximum total drug concentration in liver, kidney and cancer (5 mg/kg oral, CWR-22Rv1 tumor bearing mice): ≤ 5 h
total drug within the cancer present as parent tasquinimod (CWR-22Rv1 cancer, 4 hours post 5 mg/kg oral): > 80%
percentage of total drug in CWR-22Rv1 cancer (CWR-22Rv1 cancer, 4 hours post oral 5mg/kg tasquinimod): 83+/-6%
percentage of total drug in kidney (kidney, 4 hours post oral 5mg/kg tasquinimod): 60+/-7%
percentage of total drug in liver (liver, 4 hours post oral 5mg/kg tasquinimod): 29+/-5%
concentration at 4 h (CWR-22Rv1 cancer tissue, CWR-22Rv1 cancer, 4 hours post oral 5mg/kg tasquinimod, 1gm tissue = 1ml, read-out: concentration in CWR-22Rv1 cancer): 2.24 µM
concentration at 4 h (kidney, 4 hours post oral 5mg/kg tasquinimod, 1gm tissue = 1ml, read-out: concentration in kidney): 2.3 µM
concentration at 4 h (liver, 4 hours post oral 5mg/kg tasquinimod, 1gm tissue = 1ml, read-out: concentration in liver): 3.77 µM
concentration at 4 h (plasma, 4 hours post oral 5mg/kg tasquinimod, read-out: concentration in plasma): 5.58 µM
percentage of total drug in plasma (plasma, 4 hours post oral 5mg/kg tasquinimod): 93+/-6%
Compound: COc1cccc2c1c(O)c(C(=O)N(C)c1ccc(C(F)(F)F)cc1)c(=O)n2C [Tasquinimod]
